Test results reported in patent publication US7189851B2, “Condensed heterocyclic compounds as calcitonin agonists” (SmithKline Beecham Corporation, priority 2002, dated 2007).

Target: T1, human calcitonin-2 receptor (hCT2R) (Homo sapiens, UniProt P30988)
T1 construct: expressed in transfected cells; host or cells: Chinese hamster ovary (CHO) cells co-transfected with a 6CRE-luciferase reporter; receptor cDNA cloned from the MCF7 cell line
T1 sequence (P30988 25-474): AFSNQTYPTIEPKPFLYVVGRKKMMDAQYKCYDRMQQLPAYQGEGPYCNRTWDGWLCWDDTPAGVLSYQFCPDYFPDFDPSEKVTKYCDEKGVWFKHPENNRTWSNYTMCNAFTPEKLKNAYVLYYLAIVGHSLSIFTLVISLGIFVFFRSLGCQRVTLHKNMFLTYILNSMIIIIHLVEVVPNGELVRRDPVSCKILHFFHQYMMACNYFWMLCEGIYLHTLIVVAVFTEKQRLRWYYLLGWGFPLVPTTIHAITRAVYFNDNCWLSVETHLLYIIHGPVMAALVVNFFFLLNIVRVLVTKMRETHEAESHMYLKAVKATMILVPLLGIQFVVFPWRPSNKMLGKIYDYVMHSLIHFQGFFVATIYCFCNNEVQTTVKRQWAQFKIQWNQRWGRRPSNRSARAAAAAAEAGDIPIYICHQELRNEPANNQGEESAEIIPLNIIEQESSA
Assay: HCT2R CRE-luc reporter assay
Assay type: cell-based
Settings: agonist activity; CHO-6CRE-luciferase cells co-transfected with hCT2R
Protocol: The compounds of the present invention elicit important and measurable pharmacological responses. As is to be expected, the efficacy of any compound will vary depending upon the particular assay and the particular compound tested.
All recombinant cell line human calcitonin receptor assays were carried out with the human receptor corresponding to GeneBank Accession Number X69920, [See: Molecular Pharmacology 46 (2):246–255, 1994, Cloning and characterization of an abundant subtype of the human calcitonin receptor] cloned from the MCF7 cell line (American Type Tissue Collection, Manassas, Va., USA, Catalog # HTB-22). Human calcitonin receptor (hCT2R) was cloned as a HindIII fragment into plasmid BS SKII. Chinese hamster ovary cells were co-transfected with a 6CRE-luciferase reporter system and hCTR2. HEK cells were transfected with hCTR2.
CHO-6CRE-luciferase cells with or without co-expressed hCTR2 were grown in suspension in commercially available cell culture medium supplemented with 2 mM L-glutamine and 5% fetal bovine serum (FBS). Sixteen hours before each assay, cells were collected and resuspended at 1,000,000 cells/ml in media without FBS. Cells were cultured in spinner flasks at 37° C. in an atmosphere of 5% CO2. At the time of the assay, cells were pelleted by centrifugation and resuspended in media without FBS at a concentration of 250,000 cells/ml. The cell suspension was pipetted into black 96-well microtiter plates (25,000 cells/well) containing test compounds. After a four-hour incubation at 37° C., media was aspirated, followed by addition of 50 microliters of LucLite and PBS (1:1) containing 1 mM CaCl2 and 1 mM MgCl2. The plates were sealed and incubated for 20 minutes in the dark. Luminescent responses were measured using a Packard TopCount.
Structure activity studies were performed on CHO-6CRE-luciferase cells with or without co-transfected hCT2R. Forty-eight hours before each assay, cells were removed with trypsin and plated in 96-well microtiter plates at a concentration of 25–100,000 cells/well. Sixteen hours before each assay, FBS-containing media was removed and replaced with media without FBS. Compounds were added and incubated for four hours at 37° C. After incubation, media was aspirated and 50 microliters of LucLite in PBS (1:1) containing 1 mM CaCl2 and 1 mM MgCl2 were added to each well. Plates were sealed and incubated for 20 minutes in the dark before quantification of luminescence on a Packard TopCount.
Concentration-response curves were calculated and potencies were reported as the concentration of compounds producing half-maximal responses (EC50) or the negative log of the concentration of compounds producing half-maximal responses (pEC50).

Compound | EC50 [µM]
O=C(NCc1ccco1)c1ccc(-c2c(NC(=O)C3CCCC3)c(CCc3ccc(C(F)(F)F)cc3)nc3c2C(=O)N2CCC[C@@H]32)cc1 [Example 24, 4-((9aS)-3-[(Cyclopentylcarbonyl)amino]-5-oxo-2-{2-[4-(trifluoromethyl)phenyl]ethyl}-7,8,9,9a-tetrahydro-5H-pyrido[2,3-a]pyrrolizin-4-yl)-N-(2-furylmethyl)benzamide] | 0.1 to 1
CCOC(=O)c1c(Cc2ccc(F)cc2)nc2c(c1-c1ncc(C(=O)N[C@@H]3CCc4ccccc43)s1)C(=O)N1CCC[C@@H]21 [Example 19, Ethyl (9aS)-4-(5-{[(1R)-2,3-dihydro-1H-inden-1-ylamino]carbonyl}-1,3-thiazol-2-yl)-2-(4-fluorobenzyl)-5-oxo-7,8,9,9a-tetrahydro-5H-pyrido[2,3-a]pyrrolizine-3-carboxylate] | ≤ 0.01
Cc1nc2c(c(-c3ccc(C(=O)NCc4ccco4)cc3)c1C(=O)CCc1ccc(F)cc1)C(=O)N1CCC[C@@H]21 [Example 30, 4-{(9aS)-3-[3-(4-fluorophenyl)propanoyl]-2-methyl-5-oxo-7,8,9,9a-tetrahydro-5H-pyrido[2,3-α]pyrrolizin-4-yl}-N-(2-furylmethyl)benzamide] | 0.1 to 1
CCOC(=O)c1c(CCc2ccc(C(F)(F)F)cc2)nc2c(c1-c1ccc(C(=O)NCc3ccco3)cc1)C(=O)N1CSC[C@@H]21 [Example 34, Ethyl (9aR)-4-(4-{[(2-furylmethyl)amino]carbonyl}phenyl)-5-oxo-2-{2-[4-(trifluoromethyl)phenyl]ethyl}-9,9a-dihydro-5H-[1,3]thiazolo[3′,4′:1,2]pyrrolo[3,4-b]pyridine-3-carboxylate] | ≤ 0.01
CCOC(=O)c1c(CCc2ccc(OC)cc2)nc2c(c1-c1ccc(C(=O)NCc3ccco3)cc1)C(=O)N1CCC[C@H]21 [Example 1, Ethyl (9aR)-4-(4-{[(2-furylmethyl)amino]carbonyl}phenyl)-2-[2-(4-methoxyphenyl)ethyl]-5-oxo-7,8,9,9a-tetrahydro-5H-pyrido[2,3-α]pyrrolizine-3-carboxylate] | 0.01 to 0.1
CCOC(=O)c1c(CCc2ccc(C(F)(F)F)cc2)nc2c(c1-c1nc(C(=O)N[C@@H]3CCc4ccccc43)co1)c(=O)n1n2CCC1 [Example 21, Ethyl 4-(4-{[(1R)-2,3-dihydro-1H-inden-1-ylamino]carbonyl}-1,3-oxazol-2-yl)-5-oxo-2-{2-[4-(trifluoromethyl)phenyl]ethyl}-8,9-dihydro-5H,7H-pyrazolo[1′, 2′:1,2]pyrazolo[3,4-b]pyridine-3-carboxylate] | 0.01 to 0.1
CCOC(=O)c1c(CCc2ccc(F)cc2)nc2c(c1-c1ccc(C(=O)N[C@@H]3CCc4ccccc43)s1)C(=O)N1CCC[C@@H]21 [Example 18, Ethyl(9aS)-4-(5-{[(1R)-2,3-dihydro-1H-inden-1-ylamino]carbonyl}-2-thienyl)-2-[2-(4-fluorophenyl)ethyl]-5-oxo-7,8,9,9a-tetrahydro-5H-pyrido[2,3-a]pyrrolizine-3-carboxylate] | ≤ 0.01
CCOC(=O)c1c(Cc2ccc(F)cc2F)nc2c(c1-c1cnc(C(=O)N[C@@H]3CCc4ccccc43)cn1)C(=O)N1CCC[C@@H]21 [Example 22, Ethyl(9aS)-2-(2,4-difluorobenzyl)-4-(5-{[(1R)-2,3-dihydro-1H-inden-1-ylamino]carbonyl}-2-pyrazinyl)-5-oxo-7,8,9,9a-tetrahydro-5H-pyrido[2,3-a]pyrrolizine-3-carboxylate] | 0.01 to 0.1
O=C(NCc1ccco1)c1ccc(-c2c(NC(=O)C(F)(F)F)c(CCc3ccc(C(F)(F)F)cc3)nc3c2C(=O)N2CCC[C@@H]32)cc1 [Example 27, 4-((9aS)-3-[(Trifluoromethylcarbonyl)amino]-5-oxo-2-{2-[4-(trifluoromethyl)phenyl]ethyl}-7,8,9,9a-tetrahydro-5H-pyrido[2,3-α]pyrrolizin-4-yl)-N-(2-furylmethyl)benzamide] | 0.1 to 1
Ethyl(9aS)-4-[3-({[2-(2-furyl)ethyl]amino}carbonyl)phenyl]-5-oxo-2-{2-[4-(trifluoromethyl)phenyl]ethyl}-7,8,9,9a-tetrahydro-5H-pyrido[2,3-a]pyrrolizine-3-carboxylate [Example 13] | ≥ 1
O=C(N[C@@H]1CCc2ccccc21)c1ccc(-c2cc(Cc3ccc(F)cc3)nc3c2C(=O)N2CCC[C@@H]32)cc1 [Example 20, 4-[(9aS)-2-(4-fluorobenzyl)-5-oxo-7,8,9,9a-tetrahydro-5H-pyrido[2,3-a]pyrrolizin-4-yl]-N-[(1R)-2,3-dihdro-1H-inden-1-yl]benzamide] | 0.01 to 0.1
CCOC(=O)c1c(CCc2ccc(F)cc2)nc2c(c1-c1cc(C(=O)NC3CCc4ccccc43)co1)C(=O)N1CCC[C@@H]21 (stereo partly drawn) [Example 17, Ethyl(9aS)-4-{4-[(2,3-dihydro-1H-inden-1-ylamino)carbonyl]-2-furyl}-2-[2-(4-fluorophenyl)ethyl]-5-oxo-7,8,9,9a-tetrahydro-5H-pyrido[2,3-a]pyrrolizine-3-carboxylate] | ≤ 0.01
Ethyl (9αS)-4-{4-[(benzylamino)carbonyl]phenyl}-5-oxo-2-{2-[4-(trifluoro-methyl)phenyl]ethyl}-9,9a-dihydro-5H-[1,3]oxazolo[3′,4′:1,2]pyrrolo[3,4-b]pyridine-3-carboxylate [Example 36] | 0.01 to 0.1

Other lines, results leading:

EC50 [µM] | Compound
0.1 to 1 | CCOC(=O)c1c(CCc2ccc(F)cc2)nc2c(c1-c1cc(Br)cs1)C(=O)N1CCC[C@@H]21 [Example 56, Ethyl (9aS)-4-(4-bromo-2-thienyl)-2-[2-(4-fluorophenyl)ethyl]-5-oxo-7,8,9,9a-tetrahydro-5H-pyrido[2,3-α]pyrrolizine-3-carboxylate]
≤ 0.01 | CCOC(=O)c1c(CCCC(C)C)nc2c(c1-c1ccc(C(=O)N[C@@H]3CCc4ccccc43)cc1)C(=O)N1CCC[C@@H]21 [Example 43, Ethyl (9aS)-4-(4-{[(1R)-2,3-dihydro-1H-inden-1-ylamino]carbonyl}phenyl)-2-(4-methylpentyl)-5-oxo-7,8,9,9a-tetrahydro-5H-pyrido[2,3-α]pyrrolizine-3-carboxylate]
0.01 to 0.1 | CCOC(=O)c1c(Cc2ccc(F)cc2)nc2c(c1-c1ccc(C(=O)NN3CCc4ccccc43)cc1)C(=O)N1CCC[C@@H]21 [Example 55, Ethyl (9aS)-4-{4-[(2,3-dihydro-1H-indol-1-ylamino)carbonyl]phenyl}-2-(4-fluorobenzyl)-5-oxo-7,8,9,9a-tetrahydro-5H-pyrido[2,3-α]pyrrolizine-3-carboxylate]
0.1 to 1 | CCOC(=O)c1c(CCc2ccc(C(F)(F)F)cc2)nc2c(c1-c1ccc(C(=O)NCCCn3ccnc3)cc1)C(=O)N1CCC[C@@H]21 [Example 41, Ethyl (9aS)-4-[4-({[3-(1H-imidazol-1-yl)propyl]amino}carbonyl)phenyl]-5-oxo-2-{2-[4-(trifluoromethyl)phenyl]ethyl}-7,8,9,9a-tetrahydro-5H-pyrido[2,3-α]pyrrolizine-3-carboxylate]
0.1 to 1 | O=C(N[C@@H]1CCc2ccccc21)c1ccc2c(c1)[nH]c(=O)c1c(Cc3ccc(F)cc3)nc3c(c12)C(=O)N1CCC[C@@H]31 [Example 58, (8bS)-N-[(1R)-2,3-dihydro-1H-inden-1-yl]-7-(4-fluorobenzyl)-6,13-dioxo-5,8b,9,10,11,13-hexahydro-6H-benzo[c]pyrroizino[2,1-f][2,7]naphthyridine-3-carboxamide]
0.01 to 0.1 | CCOC(=O)c1c(CCc2ccc(F)cc2)nc2c(c1-c1ccc(C(=O)N[C@@H]3CCc4ccccc43)cc1[N+](=O)[O-])C(=O)N1CCC[C@@H]21 [Example 53, Ethyl (9aS)-4-(4-{[(1R)-2,3-dihydro-1H-inden-1-ylamino]carbonyl}-2-nitrophenyl)-2-[2-(4-fluorophenyl)ethyl]-5-oxo-7,8,9,9a-tetrahydro-5H-pyrido[2,3-α]pyrrolizine-3-carboxylate]
